In patent publication US9073967B2, “High salt-resistance antibacterial peptide and method for producing the same” (NATIONAL TSING HUA UNIVERSITY, priority 2011, dated 2015):
Where a SMILES comes first, the peptide text is derived from it.

Tests used:
[1] = system: Pseudomonas aeruginosa strains ATTC 9027; experiment: Antibacterial activity assay, NCCLS microdilution MIC in MHB; assay type: cell-based
Excerpt: (§1) For testing the antibacterial ability of Phe-P113, Nal-P113 and Bip-P113 in different salt concentration, we use Antibacterial activity assay to perform the test. Three bacteria strains are used: Eschericha coli strains (ATCC 25922), Staphylococcus aureus strains (ATCC 25923, 29213 and 19636, methicillin-resistant) and Pseudomonas aeruginosa strains (ATCC 27853 and 9027, ampicillin-resistant).
(§2) The microdilution method of National Committee for Clinical Laboratory Standards (NCCLS) is used to evaluate ‘The minimal inhibition concentration (MIC)’. The minimum concentration that can inhibit 90% or more microbes is the ‘minimal inhibition concentration’.
(§3) In the microdilution method, the 1 μl peptide solution (The concentration is between the range of 5000 μg/ml to 78.1 μg/ml) and the 99 μl inoculums (5×10^5 CFU/ml) is mixed incubated in 96-well culture dish coated with polyethylene under 37° C. for 16 hr. Then evaluated the turbidity in O.D.600 by ELISA plate reader (Thermo Max, Molecular Devices, Sunnyvale, Calif.). Take the Muller-Hinton Broth (MHB) and inoculums suspension with adding peptides as negative and positive control group relatively. The result of MIC is the minimum concentration of peptides that can inhibit the bacteria growth (equal to or more than 90%).

[2] = system: Staphylococcus aureus strains ATCC 19636; experiment: as above; assay type: cell-based
Excerpt: as §1, §2, §3

[3] = system: Staphylococcus aureus strains ATCC 25923; experiment: as above; assay type: cell-based
Excerpt: as §1, §2, §3

[4] = system: Eschericha coli strains ATCC 25922; experiment: as above; assay type: cell-based
Excerpt: as §1, §2, §3

[5] = system: Pseudomonas aeruginosa strains ATCC 27853; experiment: as above; assay type: cell-based
Excerpt: as §1, §2, §3

[6] = system: Staphylococcus aureus strains ATCC 29213; experiment: as above; assay type: cell-based
Excerpt: as §1, §2, §3

S. aureus ATCC 25923 [7] = experiment: Antibacterial ability in different salt (NaCl) concentration, LYM medium
S. aureus ATCC 19636 [8] = experiment: Antibacterial ability in different MgCl2 concentration; assay type: cell-based
E. coli ATCC 25922 [9] = experiment: Antibacterial ability in different salt (NaCl) concentration, LYM medium
S. aureus ATCC 19636 [10] = experiment: as above
P. arugenosa ATCC 27853 [11] = experiment: as above
S. aureus ATCC 25923 [12] = experiment: Antibacterial ability in different MgCl2 concentration; assay type: cell-based
P. arugenosa ATCC 9027 [13] = experiment: as above; assay type: cell-based
E. coli ATCC 25922 [14] = experiment: as above; assay type: cell-based
P. arugenosa ATCC 9027 [15] = experiment: Antibacterial ability in different salt (NaCl) concentration, LYM medium
P. arugenosa ATCC 27853 [16] = experiment: Antibacterial ability in different MgCl2 concentration; assay type: cell-based
S. aureus ATCC 29213 [17] = experiment: Antibacterial ability in different salt (NaCl) concentration, LYM medium
S. aureus ATCC 29213 [18] = experiment: Antibacterial ability in different MgCl2 concentration; assay type: cell-based

minimal inhibition concentration (MIC) [1]: >50
minimal inhibition concentration (MIC) [2]: >50
minimal inhibition concentration (MIC) [3]: >50
minimal inhibition concentration (MIC) [4]: >50
minimal inhibition concentration (MIC) [5]: >50
minimal inhibition concentration (MIC) [6]: >50
antibacterial ability (MIC) (S. aureus ATCC 25923 [7]; NaCl 50 mM): 50
antibacterial ability (MIC) (S. aureus ATCC 25923 [7]; NaCl 100 mM): 50
antibacterial ability (MIC) (S. aureus ATCC 25923 [7]; NaCl 200 mM): >50
antibacterial ability (MIC) (S. aureus ATCC 25923 [7]; NaCl 300 mM): >50
antibacterial ability (MIC) (S. aureus ATCC 19636 [8]; Control group): 50 µg/mL
antibacterial ability (MIC) (S. aureus ATCC 19636 [8]; MgCl2 0.5 mM): > 50 µg/mL
antibacterial ability (MIC) (S. aureus ATCC 19636 [8]; MgCl2 1.5 mM): > 50 µg/mL
antibacterial ability (MIC) (S. aureus ATCC 19636 [8]; MgCl2 2.5 mM): > 50 µg/mL
antibacterial ability (MIC) (E. coli ATCC 25922 [9]; NaCl 50 mM): 50
antibacterial ability (MIC) (E. coli ATCC 25922 [9]; NaCl 100 mM): 50
antibacterial ability (MIC) (E. coli ATCC 25922 [9]; NaCl 200 mM): >50
antibacterial ability (MIC) (E. coli ATCC 25922 [9]; NaCl 300 mM): >50
antibacterial ability (MIC) (S. aureus ATCC 19636 [10]; NaCl 50 mM): 50
antibacterial ability (MIC) (S. aureus ATCC 19636 [10]; NaCl 100 mM): 50
antibacterial ability (MIC) (S. aureus ATCC 19636 [10]; NaCl 200 mM): >50
antibacterial ability (MIC) (S. aureus ATCC 19636 [10]; NaCl 300 mM): >50
antibacterial ability (MIC) (P. arugenosa ATCC 27853 [11]; NaCl 50 mM): 50
antibacterial ability (MIC) (P. arugenosa ATCC 27853 [11]; NaCl 100 mM): 50
antibacterial ability (MIC) (P. arugenosa ATCC 27853 [11]; NaCl 200 mM): >50
antibacterial ability (MIC) (P. arugenosa ATCC 27853 [11]; NaCl 300 mM): >50
antibacterial ability (MIC) (S. aureus ATCC 25923 [12]; Control group): 12.5 µg/mL
antibacterial ability (MIC) (S. aureus ATCC 25923 [12]; MgCl2 0.5 mM): 50 µg/mL
antibacterial ability (MIC) (S. aureus ATCC 25923 [12]; MgCl2 1.5 mM): 50 µg/mL
antibacterial ability (MIC) (S. aureus ATCC 25923 [12]; MgCl2 2.5 mM): 50 µg/mL
antibacterial ability (MIC) (P. arugenosa ATCC 9027 [13]; Control group): 12.5 µg/mL
antibacterial ability (MIC) (P. arugenosa ATCC 9027 [13]; MgCl2 0.5 mM): > 50 µg/mL
antibacterial ability (MIC) (P. arugenosa ATCC 9027 [13]; MgCl2 1.5 mM): > 50 µg/mL
antibacterial ability (MIC) (P. arugenosa ATCC 9027 [13]; MgCl2 2.5 mM): > 50 µg/mL
antibacterial ability (MIC) (E. coli ATCC 25922 [14]; Control group): 12.5 µg/mL
antibacterial ability (MIC) (E. coli ATCC 25922 [14]; MgCl2 0.5 mM): 12.5 µg/mL
antibacterial ability (MIC) (E. coli ATCC 25922 [14]; MgCl2 1.5 mM): 25 µg/mL
antibacterial ability (MIC) (E. coli ATCC 25922 [14]; MgCl2 2.5 mM): 25 µg/mL
antibacterial ability (MIC) (P. arugenosa ATCC 9027 [15]; NaCl 50 mM): 50
antibacterial ability (MIC) (P. arugenosa ATCC 9027 [15]; NaCl 100 mM): 50
antibacterial ability (MIC) (P. arugenosa ATCC 9027 [15]; NaCl 200 mM): >50
antibacterial ability (MIC) (P. arugenosa ATCC 9027 [15]; NaCl 300 mM): >50
antibacterial ability (MIC) (P. arugenosa ATCC 27853 [16]; Control group): 25 µg/mL
antibacterial ability (MIC) (P. arugenosa ATCC 27853 [16]; MgCl2 0.5 mM): 50 µg/mL
antibacterial ability (MIC) (P. arugenosa ATCC 27853 [16]; MgCl2 1.5 mM): 50 µg/mL
antibacterial ability (MIC) (P. arugenosa ATCC 27853 [16]; MgCl2 2.5 mM): 50 µg/mL
antibacterial ability (MIC) (S. aureus ATCC 29213 [17]; NaCl 50 mM): 50
antibacterial ability (MIC) (S. aureus ATCC 29213 [17]; NaCl 100 mM): 50
antibacterial ability (MIC) (S. aureus ATCC 29213 [17]; NaCl 200 mM): >50
antibacterial ability (MIC) (S. aureus ATCC 29213 [17]; NaCl 300 mM): >50
antibacterial ability (MIC) (S. aureus ATCC 29213 [18]; Control group): 12.5 µg/mL
antibacterial ability (MIC) (S. aureus ATCC 29213 [18]; MgCl2 0.5 mM): 12.5 µg/mL
antibacterial ability (MIC) (S. aureus ATCC 29213 [18]; MgCl2 1.5 mM): 25 µg/mL
antibacterial ability (MIC) (S. aureus ATCC 29213 [18]; MgCl2 2.5 mM): 25 µg/mL
SMILES: C[C@H](N)C(=O)N[C@@H](CCCCN)C(=O)N[C@@H](CCCNC(=N)N)C(=O)N[C@@H](Cc1c[nH]cn1)C(=O)N[C@@H](Cc1c[nH]cn1)C(=O)NCC(=O)N[C@@H](Cc1ccc(O)cc1)C(=O)N[C@@H](CCCCN)C(=O)N[C@@H](CCCNC(=N)N)C(=O)N[C@@H](CCCCN)C(=O)N[C@@H](Cc1ccccc1)C(=O)N[C@@H](Cc1c[nH]cn1)C(N)=O [P113, AKRHHGYKRKFH-NH2 (SEQ ID NO: 1)] (H-AKRHHGYKRKFH-NH2; N-terminus assumed)
